According to patent US9617517B2, “Small chemical compound which promotes induction of differentiation of stem cells into insulin-producing cells and method for inducing differentiation of stem cells into insulin-producing cells using said small chemical compound” (NATIONAL UNIVERSITY CORPORATION KUMAMOTO UNIVERSITY, priority 2011, dated 2017):
Structures can show the parent of a compound that is named as a salt.

Tested on: mouse ES cells (Pdx1/GFP)
Test: Differentiation of mouse ES cells into insulin positive cells on nano fiber plate, immunostaining and quantitative image analysis
Assay type: cell-based
Conditions: for effect on differentiation into insulin-expressing cells: compound added d11-d17, insulin staining d17 (FIG. 4, 5, 7, 8, 10); for Relative value of Ins positive cells: number of cells with no compound = 1, concentration of each compound (μM), added d11, d13, d15, analysed d17; for hit confirmed by dose-responsiveness: 0.08 to 10 μM, SK7 ES cells; for induction of the differentiation of stem cells into insulin-producing cells: similar separate experiments; for number of Pdx1/GFP positive cells / number of insulin positive cells: 0 to 10 μM added from d11, counted d17 (FIG. 14)
Source text: Two ES cell lines, one expressing green fluorescent protein (GFP) under the control of insulin 1 promoter, designed ING (Higuchi Y., Shiraki N., Yamane K, Qin Z., Mochitate K., Araki K., Senokuchi K., Yamagata K., Hara M., Kume K., and Kume S., Synthesized basement membranes direct the differentiation of mouse embryonic stem cells into pancreatic lineages. J. Cell Science, 123, 2733-2742, 2010), and the other one expressing GFP under the control of Pdx1 promoter, designated SK7 (Shiraki N, Yoshida T, Araki K, et al. Guided differentiation of embryonic stem cells into Pdx1-expressing regional-specific definitive endoderm. Stem Cells. 2008; 26:874-885), were used. Both cell lines were maintained on mouse embryonic fibroblast (MEF) feeders in Glasgow minimum essential medium (Invitrogen) containing 1000 units/ml leukemia inhibitory factor (LIF; Chemicon), 15% Knocked-out Serum Replacement (KSR; Gibco), 1% fetal bovine serum (FBS; Hyclone), 100 μM nonessential amino acids (NEAA; Invitrogen), 2 mM L-glutamine (L-Gln; Invitrogen), 1 mM sodium pyruvate (Invitrogen), 50 units/ml penicillin and 50 μg/ml streptomycin (PS; Invitrogen) and 100 μM β-mercaptoethanol (β-ME; Sigma), as ES maintenance medium.
For the differentiation studies, ES cells were plated at 5,000 cells per well in Corning 96 well plate with Ultra-Web Synthetic Polyamine Surface (#3873XX1, Corning Coster, Cambridge, Miss.), and cultured. The cells were cultured in Dulbecco's Modified Eagle Medium (DMEM: Invitrogen, Glasgow, UK) containing 4500 mg/L glucose, supplemented with NEAA, L-Gln, PS, β-ME, 10 μg/ml insulin (Sigma-Aldrich), 5.5 μg/ml transferrin (Sigma-Aldrich), 6.7 pg/ml selenium (Sigma-Aldrich), and 0.25% Albmax (Invitrogen), 10 ng/mL recombinant human activin-A (R&D Systems, Minneapolis, Minn.), 5 ng/mL; recombinant human bFGF for 7 days (d1-d7) (I of FIG. 1). And then, the medium was changed to RPMI 1640 medium (Invitrogen) containing 2000 mg/L glucose (Sigma, St Louis, Mo.), 1 μM Retinoic acid (Sigma-Aldrich), 50 ng/ml Human Recombinant Fibroblast Growth Factor-10 (Peprotech, Rocky Hill, N.J.), B27 SUPPLEMENT (Invitrogen) and 0.25 μM 3-Keto-N-(aminoethyl-aminocaproyl-dihydrocinnamoyl) cyclopamine Shh Signaling Antagonist II (Calbiochem, San Diego, Calif.) on d7 to d11 (II of FIG. 1). Finally, the medium was switched to DMEM containing 1000 mg/L glucose supplemented with NEAA, L-Gln, PS, β-ME, 10 μg/ml insulin (Sigma-Aldrich), 5.5 μg/ml transferrin (Sigma-Aldrich), 6.7 pg/ml selenium (Sigma-Aldrich), 0.25% Albmax (Invitrogen) and 10 mM nicotinamide (Sigma-Aldrich) on d11 to d17 (III of FIG. 1). Media were replaced every 2 days with fresh medium and growth factors until d17.
All tested small chemical compounds were solved in dimethyl sulfoxide (DMSO) at given concentration. Compounds were added on d11, d13 and d15 in a medium. Final concentration of DMSO was adjusted at 1.0% in all experiments for compounds.
After 17 days cell culture, cultured ES cells were fixed in 4% paraformaldehyde in PBS for 30 min at room temperature, and rinsed several times with PBS. Then, cells were incubated in the added diluted primary antibody in 20% Blocking One (Nacalai tesque, Tokyo, Japan) in PEST (0.1% Tween-20 in PBS) in a humidified chamber for overnight at 4° C. After washing the cells in PBST, cells were incubated with the secondary antibody in 20% Blocking One for 2 hr at room temperature in dark. After washing off the secondary antibody in PBST, cells were counterstained with […] (DAPI) (Roche Diagnostics). The following antibodies were used as First antibodies: Rabbit anti-GFP (MBL International Corp., Woburn, Mass.), Mouse anti-Insulin (Sigma). The following antibodies were used as Secondary antibodies: Alexa 568-conjugated, Alexa 488-conjugated antibodies (Invitrogen) Cells were counterstained with DAPI (Roche Diagnotics, Basel, Switzerland).

N[C@@H](Cc1c[nH]c2ccc(O)cc12)C(=O)O [5HTP, 5-hydroxytryptophan]
effect on differentiation into insulin-expressing cells: the same effect

CO[C@@H]1[C@@H]2OP(=O)(O)OC[C@H]2O[C@H]1n1c(Sc2ccc(Cl)cc2)nc2c(N)ncnc21 [8-CPT-2-Me-cAMP]
Relative value of Ins positive cells: 3.7

C[N+](C)(C)CCOC(N)=O [Carbachol, carbachol]
effect on differentiation into insulin-expressing cells: increased insulin positive cells

C[C@@](Cc1ccc(O)c(O)c1)(NN)C(=O)O [Carbidopa, carbidopa]
effect on differentiation into insulin-expressing cells: the same effect

CN1CC[C@@]2(C)c3cc(O)ccc3N(C)[C@@H]12.O=C(O)/C=C/C(=O)O [Eseroline fumarate salt, eseroline fumarate]
hit confirmed by dose-responsiveness: positive | effect on differentiation into insulin-expressing cells: increased insulin positive cells | Relative value of Ins positive cells: 1.8

Nc1nc2ncc(CNc3ccc(C(=O)N[C@@H](CCC(=O)O)C(=O)O)cc3)nc2c(=O)[nH]1 [Folic acid, folic acid]
hit confirmed by dose-responsiveness: positive

COc1cc2c(cc1OC)-c1cc3ccc(OC)c(OC)c3c[n+]1CC2 [Palmatine chloride, palmatine chloride]
hit confirmed by dose-responsiveness: positive | effect on differentiation into insulin-expressing cells: increased insulin positive cells

C#CCN(C)Cc1ccccc1 [Pargyline, pargyline hydrochloride]
effect on differentiation of Pdx1 positive cells into insulin-producing cells (1 μM Pargyline (FIG. 6, 7)): disturbs the differentiation of Pdx1 positive cells into insulin-producing cells | effect on Pdx1 positive pancreatic precursor cells (reserpine 0.63 μM, Pargyline 1 μM (FIG. 6, 7)): without influencing the ratio of Pdx1-expressing cells | induction of the differentiation of stem cells into insulin-producing cells: induce the differentiation of stem cells into insulin-producing cells | effect of 1 μM Pargyline on differentiation in presence of reserpine (with 0.63 μM reserpine): deactivated

C[C@](N)(Cc1ccc(O)cc1)C(=O)O [alpha- Methyltyrosine, α-methyltyrosine]
effect on differentiation into insulin-expressing cells: the same effect

O=C(CCCN1CCN(c2ccccn2)CC1)c1ccc(F)cc1 [azaperone]
induction of the differentiation of stem cells into insulin-producing cells: induce the differentiation of stem cells into insulin-producing cells

CN(C)CCC(c1ccc(Cl)cc1)c1ccccn1 (stereo not shown) [chlorpheniramine maleate]
induction of the differentiation of stem cells into insulin-producing cells: induce the differentiation of stem cells into insulin-producing cells

CN/C(=N/CCSCc1nc[nH]c1C)NC#N [cimetidine]
induction of the differentiation of stem cells into insulin-producing cells: induce the differentiation of stem cells into insulin-producing cells

CN(C)CCCSC(=N)N [dimaprit dihydrochloride]
induction of the differentiation of stem cells into insulin-producing cells: induce the differentiation of stem cells into insulin-producing cells

NCCc1ccc(O)c(O)c1 [dopamine]
effect on insulin positive cells (0.1 μM dopamine (FIG. 11B)): decreased insulin positive cells | effect on enhancement effect of dBu-cAMP (0.1 μM dopamine with 0.6 μM dBu-cAMP (FIG. 11B)): scarcely influenced | effect on increase of insulin-expressing cells mediated by reserpine (0.1 μM dopamine with 0.6 μM reserpine (FIG. 11B)): inhibited completely | concentration inhibiting completely the differentiation of β cells (FIG. 8): ≥ 100 nM | effect on differentiation into insulin-expressing cells: suppressed the differentiation of pancreas in a dose-dependent manner

Cc1c2ccncc2c(C)c2c1[nH]c1ccccc12 [ellipticine]
hit confirmed by dose-responsiveness: positive

COCCCC/C(=N\OCCN)c1ccc(C(F)(F)F)cc1 [fluvoxamine maleate]
induction of the differentiation of stem cells into insulin-producing cells: induce the differentiation of stem cells into insulin-producing cells

C[C@@H]1C(=O)O[C@H]2C[C@@]34[C@H]5C[C@@H](C(C)(C)C)[C@]36[C@@H](OC(=O)[C@@H]6O)O[C@@]4(C(=O)O5)[C@]21O [ginkgolide A]
induction of the differentiation of stem cells into insulin-producing cells: induce the differentiation of stem cells into insulin-producing cells

NCCc1c[nH]cn1 [histamine]
number of Pdx1/GFP positive cells: did not vary | number of insulin positive cells: decreased in a concentration-dependent manner

OCCOCCN1CCN(C(c2ccccc2)c2ccc(Cl)cc2)CC1 (stereo not shown) [hydroxyzine dihydrochloride]
induction of the differentiation of stem cells into insulin-producing cells: induce the differentiation of stem cells into insulin-producing cells

Cc1nccn1CC1CCc2c(c3ccccc3n2C)C1=O (stereo not shown) [ondansetron hydrochloride]
induction of the differentiation of stem cells into insulin-producing cells: induce the differentiation of stem cells into insulin-producing cells

CCN(CC)CCCC(C)Nc1c2ccc(Cl)cc2nc2ccc(OC)cc12 (stereo not shown) [quinacrine dihydrochloride dihydrate]
induction of the differentiation of stem cells into insulin-producing cells: induce the differentiation of stem cells into insulin-producing cells

NCCc1c[nH]c2ccc(O)cc12 [serotonin]
number of Pdx1/GFP positive cells: did not vary | number of insulin positive cells: decreased in a concentration-dependent manner
